Measurements published in US20160235778A1, “COMPOSITIONS CONTAINING PUFA, URIDINE AND CHOLINE AND METHODS OF USE THEREOF” (MASSACHUSETTS INSTITUTE OF TECHNOLOGY, priority 2014, published 2016).

How the values were obtained:
[1] = test system: brain phospholipids; test: Brain phospholipid levels in gerbils given UMP diet and/or PUFA by gavage; assay type: in vivo, gerbil; parameters: PC / PE / PS / PI: unit not given here
Experimental: Control standard diet (Table 4) consisted of Teklad Global 16% protein rodent diet (Harlan Teklad, Madison, Wis.), which contained 0.1% choline chloride (CC), corresponding to a daily dose of 50 mg/kg/day. UMP was provided as 0.5% UMP·2Na^+ weight/weight, added to the control diet, also prepared by Harlan Teklad, corresponding to 240 mg/kg/day UMP. DHA was administered as 300 mg/kg/day in 200 microliter (mcL)/day 5% Arabic Gum solution, while groups not receiving DHA were administered vehicle (5% Arabic Gum) alone. DHA was provided by Nu-Chek Prep (Elysian, MN) and UMP by Numico (Wagenigen, NL).
Gerbils were anesthetized with ketamine and xylazine (80 and 10 mg/kg bwt, i.p.) and sacrificed by immersing the head into liquid nitrogen for 2 min, followed by decapitation. Brains were immediately and quickly (30 seconds) removed using a bone rongeur and stored at −80° C.
Frozen brain hemispheres were weighed and homogenized in 100 volumes of ice-cold deionized water using a tissue degrader (Polytron PT 10-35, Kinematica AG, Switzerland), then analyzed as described in Example 1.
Protein in whole brain homogenate sample was measured for using bicinchoninic acid reagent (Perkin Elmer, Norwalk, Conn., USA). DNA was measured by measuring 460 nm emission of samples on a fluorometer in the presence of bisbenzimidizole, a fluorescent dye known as Hoechst H 33258 (American Hoechst Corporation), which has an excitation maximum at 356 nm and an emission maximum of 458 when bound to DNA.
Male gerbils weighing 80-100 g were divided into 4 groups of 8 gerbils and administered the supplements depicted in Table 1:
Adult gerbils were administered control standard diet (Table 4) with our without 0.5% UMP and/or 300 mg/kg/day DHA, EPA, or AA. Groups not receiving DHA were administered vehicle (5% Arabic Gum) alone.

[2] = test system: hippocampal dendritic spines; test: Hippocampal dendritic spine numbers in pups of treated pregnant and nursing mothers; assay type: in vivo; details: rat pups, mothers treated 10 days before parturition and 20 days while nursing
Excerpt: In another study, pregnant rats were allowed to consume ad libitum, for 10 days before parturition and 20 days while nursing, either a choline-containing control diet or this diet supplemented with uridine as UMP; half of each group also received DHA or its diluent daily, by gavage. Pups were then sacrificed and brain slices were examined to determine numbers of hippocampal dendritic spines.

[3] = test system: brain CDP-choline; test: Brain CDP-choline and CDP-ethanolamine levels (HPLC); assay type: in vivo; details: gerbil
Experimental: FIG. 5A-B. Effects of DHA on brain CDP-choline levels (FIG. 5A) and CDP-ethanolamine levels (FIG. 5B). Groups of 8 gerbils received either a control or a UMP-containing diet, and, by gavage, DHA (in a vehicle of 5% gum Arabic solution) or 5% gum Arabic solution alone for 28 days. On the 29th day brains were harvested and assayed for CDP-choline. Data are presented as means±SEM. Statistical analysis was performed using one- or two-way ANOVA followed by Tukey test. a: P<0.05 when compared with the values for control diet plus vehicle group; b: P<0.05 when compared with values for UMP diet plus vehicle group.
Aliquots (2 ml) of the upper (aqueous) phase were dried under a vacuum, reconstituted, and injected into an HPLC. The dried samples were reconstituted in 100-200 μl water and were analyzed by HPLC on an anion exchange column (Alltech Hypersil APS-2, […], 250×4.6 mm). CDP-choline was eluted with a linear gradient of buffers A (H3PO4, 1.75 mM, pH 2.9) and B (NaH2PO2, 500 mM, pH 4.5) from 0 to 100% B over period of 30 min. With this system, CDP-choline was resolved from closely co-eluting substances such as UMP in an isocratic system over a period of 40 min. The retention time for CDP-choline was 9.5 min. The column was washed with buffer B at the end of each experiment and every several days to remove retained nucleotides. Individual nucleotide peaks were detected by UV absorption at 280 nm and were identified by comparison with the positions of authentic standards, as well as by the addition of nucleotide standards to samples.

[4] = test system: SHSY-5Y cells; test: 14C-choline incorporation into phospholipids in SHSY-5Y cells; assay type: cell-based, human
Experimental: SHSY-5Y cells were grown to near confluency in DMEM+10% FBS in 35 mm dishes. Cells were incubated for 18 hr in serum-free DMEM+1% FBS containing 30 μM choline+/−10 μM of DHA, arachidonic acid, or palmitic acid. Cells were then labeled, and labeled phospholipids were quantified as described for Example 1.
DHA was dissolved in ethanol to a […] concentration and frozen in 10 microliter aliquots at −80° C. For each experiment, one aliquot was diluted in ethanol to 10 micromolar; the volume giving the desired final solution in incubation medium was mixed with an equal volume of BSA solution (1 gm/ml).
The effect of arachidonic acid on phospholipid synthesis in SHSY-5Y cells was further characterized as described for omega-3 fatty acids and PC-12 cells in Example 2. […] Thus, omega-6 fatty acids stimulate synthesis of a variety of phospholipids in a dose-dependent manner.

[5] = gerbil brain, 3 weeks, 0.5% UMP and/or 300 mg/kg/day PUFA, Table 6
[6] = gerbil brain, 4 weeks, normalized to DNA levels, mean +/- SEM
[7] = gerbil brain, 4 weeks, normalized to protein levels, mean +/- SEM
[8] = gerbil brain, Table 5 part B, One week
[9] = gerbil brain, Table 5 part B, Three weeks
[10] = gerbil, Table 5A study, vs control

CCC=CCC=CCC=CCC=CCC=CCCCC(=O)O [EPA, 5,8,11,14,17-eicosapentaenoic acid]
PC [1, 5]: 125 ± 8
PE [1, 5]: 76 ± 4
PI [1, 5]: 22 ± 2
PS [1, 5]: 31 ± 1
SM [1, 5]: 26 ± 3
Total PL [1, 5]: 347 ± 19
brain phospholipid levels, in words ([1]; gerbil, 3 weeks): increased phospholipid levels

O=c1ccn([C@@H]2O[C@H](COP(=O)(O)O)[C@@H](O)[C@H]2O)c(=O)[nH]1 [UMP, uridine monophosphate]
Increase over control (%) [2]: 28%
Number of spines [2]: 68
brain CDP-choline levels, in words ([3]; FIG. 5A): decreased
brain CDP-ethanolamine levels, in words ([3]; FIG. 5B): decreased
PC [1, 5]: 131 ± 2
PE [1, 5]: 70 ± 1
PI [1, 5]: 16 ± 1
PS [1, 5]: 29 ± 1
SM [1, 5]: 22 ± 1
Total PL [1, 5]: 332 ± 5
PC [1, 6]: 368 ± 10
PE [1, 6]: 195 ± 9
PI [1, 6]: 78 ± 6
PS [1, 6]: 86 ± 7
SM [1, 6]: 111 ± 4
Total PL [1, 6]: 878 ± 18
PC [1, 7]: 171 ± 8
PE [1, 7]: 84 ± 8
PI [1, 7]: 31 ± 2
PS [1, 7]: 35 ± 3
SM [1, 7]: 52 ± 5
Total PL [1, 7]: 367 ± 22
increase in levels of total phospholipids ([1]; gerbil brain, 4 weeks, vs control group): 5%
PtdCho ([1]; gerbil brain, Table 5 part A): 171 ± 8 nmol/mg prt
PtdEtn ([1]; gerbil brain, Table 5 part A): 64 ± 8 nmol/mg prt
PtdIns ([1]; gerbil brain, Table 5 part A): 31 ± 2 nmol/mg prt
PtdSer ([1]; gerbil brain, Table 5 part A): 35 ± 3 nmol/mg prt
SM ([1]; gerbil brain, Table 5 part A): 52 ± 5 nmol/mg prt
Total PL ([1]; gerbil brain, Table 5 part A): 367 ± 22 nmol/mg prt
PtdCho [1, 8]: 154 ± 6 nmol/mg prt
PtdEtn [1, 8]: 63 ± 4 nmol/mg prt
PtdIns [1, 8]: 20 ± 4 nmol/mg prt
PtdSer [1, 8]: 39 ± 1 nmol/mg prt
SM [1, 8]: 49 ± 3 nmol/mg prt
Total PL [1, 8]: 390 ± 21 nmol/mg prt
PtdCho [1, 9]: 199 ± 5 nmol/mg prt
PtdEtn [1, 9]: 87 ± 4 nmol/mg prt
PtdIns [1, 9]: 25 ± 1 nmol/mg prt
PtdSer [1, 9]: 42 ± 2 nmol/mg prt
SM [1, 9]: 70 ± 4 nmol/mg prt
Total PL [1, 9]: 479 ± 6 nmol/mg prt
effect on brain phospholipids after 1 week of treatment ([1]; gerbil, 1 week): no significant effects
increase in brain level of PC [1, 10]: 13%
increase in brain level of PE [1, 10]: 29%
increase in brain level of PI [1, 10]: 48%
increases in brain phospholipids, in words ([1]; gerbil, treatment for 3 weeks): smaller but still significant increases

CCCCCC=CCC=CCC=CCC=CCCCC(=O)O [arachidonic acid, 5,8,11,14-eicosatetraenoic acid]
brain phospholipid levels, in words ([1]; gerbil, 3 weeks): increased phospholipid levels
phospholipid synthesis ([4]; 18 h with 10 μM fatty acid, FIG. 3A): enhanced
synthesis of total phospholipids, PC and phosphatidylethanolamine ([4]; range of dosages, dose-dependent, FIG. 3B): increased synthesis
